According to publication PMC8459971, “Evaluation of the hepatotoxicity of the novel GPR40 (FFAR1) agonist CPL207280 in the rat and monkey” (PLoS ONE, 2021):
Where “and” joins values, the source holds several entries; their conditions need not be identical. Equal values may be shown once. Entries after “also recorded” stand apart in the source; their conditions may differ.

Experiments:
[1] = Repeat-dose study in monkeys, pharmacokinetics (14 and 56 days); conditions: monkey; for AUC: exposure - AUC
[2] = Repeat-dose study in diabetic ZDF rats, serum ALT and AST; format: in vivo, rat; conditions: 15 and 45 mg/kg/day, 42 days
From the text: Male ZDF rats (n = 8) and ZL rats (n = 8) were aged 9 weeks and were housed 2–3 per cage within a small animal facility in accordance with the guidelines approved by the Association for Assessment and Accreditation of Laboratory Animal Care. […] All animals had ad libitum access to water during the entire study period. The animals were fed a diet of Purina Rodent LabDiet 5C08, equivalent to LabDiet 5008. Treatment-grouped rats (N = 8) underwent oral gavage with the test compound or vehicle at 10 mL/kg for 6 weeks. For fasting blood levels of ALT and AST after overnight fasting, blood was collected from the jugular vein or through a cardiac puncture (on the day of euthanasia, the last day of the study). Blood was collected in AXYGEN microtubes (MCT-150-C) for clinical blood chemistry measurements. Next, the sample was allowed to clot for a minimum of 30 min at room temperature and then centrifuged at 4°C and 4000 x g for 10 min. The resultant serum was transferred into three pre-labeled AXYGEN microtubes for blood chemistry analysis using the ADVIA 2400 chemistry system. Rats were euthanized by overdose of CO2 followed by decapitation.

[3] = Repeat-dose study in healthy Cynomolgus monkeys, safety (14 and 56 days)
[4] = Stability in cryopreserved hepatocytes, mouse; format: in vitro ADME; conditions: for Compound Remaining (% of 0 min): Hepatocyte Stability Mouse, single replicates
Procedure: (§1) The final incubation volume was 500 μL. Two control compounds (verapamil and donepezil) were included for each microsomal species, along with the appropriate vehicle control. The reactions were terminated by transferring 50 μL of incubate to 100 μL methanol containing an internal standard (metoprolol) at appropriate time points (0, 10, 20, 40, 60, and 120 min for the test compound and 0, 5, 10, 20, 40, and 60 min for the control compounds). The termination plates were centrifuged at 4000 x g at 4°C for 30 min to precipitate the protein. The supernatants were then collected for analysis, and LC-MS/MS was used for detection purposes. The system consisted of an Acquity™ Binary Solvent Manager, Acquity™ 4-position heated column manager, 2777 Ultra High Pressure Autosampler, and a Xevo-TQ MS triple quadrupole mass spectrometer (Waters Ltd., Herts, UK). This process was carried out twice.

[5] = Stability in cryopreserved hepatocytes, dog; format: in vitro ADME; conditions: for Compound Remaining (% of 0 min): Hepatocyte Stability Dog, single replicates
Procedure: as §1

[6] = Repeat-dose study in healthy Wistar Han rats, safety (14 and 56 days); format: in vivo, rat
[7] = Stability in cryopreserved hepatocytes, rat; format: in vitro ADME; conditions: for Compound Remaining (% of 0 min): Hepatocyte Stability Rat, single replicates
Procedure: as §1

[8] = Metabolite profiling, monkey hepatocytes; format: in vitro ADME; conditions: 10 μM CPL207280, 60 min, ND = not detected
Procedure: Suspensions of cryopreserved human, rat, and monkey hepatocytes were pooled from a minimum of three individuals. All cryopreserved hepatocytes were purchased from a commercial supplier. […] The cell density was 0.5 ×10^6 viable cells/mL. The final DMSO concentration during the incubation was 0.25%. Control incubations were performed in lysed cells to reveal any non-enzymatic degradation. Two control compounds were identified in each species. Samples (50 μL) were removed from the incubation mixture at 0, 10, 20, 40, 60, and 120 min and added to methanol containing an internal standard (100 μL) to stop the reaction. The samples were centrifuged (4000 x g at 4°C for 30 min) and the supernatants at each time point were pooled for analysis by LC MS/MS using Cyprotex generic methods. Following hepatocyte stability assays, the samples were utilized for metabolite profiling. […] Metabolites were characterized using a mass spectrometer comprising Waters Xevo QT of G2-S, Acquity Binary Solvent Manager, Acquity Column Manager, and 2777 Autosampler.

[9] = dose 50 mg/kg, Day 1, individual animals, 50 mg/kg
[10] = dose 50 mg/kg, Day 14, individual animals, 50 mg/kg
[11] = dose 100 mg/kg, Day 1, individual animals, 100 mg/kg
[12] = dose 100 mg/kg, Day 14, individual animals, 100 mg/kg
[13] = dose 150 mg/kg, Day 1, individual animals, 150 mg/kg
[14] = dose 150 mg/kg, Day 56, individual animals, 150 mg/kg
[15] = dose 200 mg/kg, Day 1, individual animals, 200 mg/kg
[16] = dose 200 mg/kg, Day 14, individual animals, 200 mg/kg
[17] = cryopreserved hepatocytes (suspension), Mouse (CD) hepatocytes, mean n = 2
[18] = cryopreserved hepatocytes (suspension), Dog (Beagle) hepatocytes, mean n = 2
[19] = cryopreserved hepatocytes (suspension), Rat (Sprague Dawley) hepatocytes, mean n = 2

CC#C[C@@H](CC(=O)O)c1ccc(OCC(C)=C(C)C)cc1 [CPL207280]
AUC ([1]; both, Cynomolgus, plasma, po, 100 mg/kg, dose 100 mg/kg, Day 1, individual animals): 334 µg·h/mL | AUC ([1]; both, Cynomolgus, plasma, po, 100 mg/kg, dose 100 mg/kg, Day 14, individual animals): 552 µg·h/mL | Cmax ([1]; both, cynomolgus, plasma, po, 50 mg/kg, Cmax, dose 50 mg/kg, Day 1, individual animals): 38.5 µg/mL | Cmax ([1]; both, cynomolgus, plasma, po, 50 mg/kg, Cmax, dose 50 mg/kg, Day 14, individual animals): 59.8 µg/mL | AUC ([1]; both, cynomolgus, plasma, po, 200 mg/kg, dose 200 mg/kg, Day 1, individual animals): 794 µg·h/mL | AUC ([1]; both, cynomolgus, plasma, po, 200 mg/kg, dose 200 mg/kg, Day 14, individual animals): 919 µg·h/mL | Cmax ([1]; both, plasma, po, 200 mg/kg, Cmax, dose 200 mg/kg, Day 1, individual animals): 258 µg/mL | Cmax [1, 9]: 54.2432 µg/mL and 70.1198 µg/mL and 73.0824 µg/mL | exposure - AUC [1, 9]: 85.565 µg·h/mL and 262.448 µg·h/mL and 140.708 µg·h/mL and 87.498 µg·h/mL and 100.461 µg·h/mL and 109.347 µg·h/mL and 254.256 µg·h/mL and 110.743 µg·h/mL and 146.423 µg·h/mL and 105.958 µg·h/mL and 142.73 µg·h/mL and 220.718 µg·h/mL | Cmax [1, 10]: 77.3656 µg/mL and 85.376 µg/mL and 71.8017 µg/mL | exposure - AUC [1, 10]: 101.909 µg·h/mL and 132.812 µg·h/mL and 431.268 µg·h/mL and 124.571 µg·h/mL | exposure - AUC ([1]; dose 50 mg/kg, Day 56, individual animals, 50 mg/kg): 150.303 µg·h/mL and 89.075 µg·h/mL and 182.055 µg·h/mL and 206.125 µg·h/mL and 124.755 µg·h/mL and 213.673 µg·h/mL and 113.523 µg·h/mL and 83.328 µg·h/mL | Cmax [1, 11]: 47.7304 µg/mL and 196.843 µg/mL and 120.978 µg/mL and 122.802 µg/mL | exposure - AUC [1, 11]: 385.402 µg·h/mL and 219.918 µg·h/mL and 309.18 µg·h/mL | Cmax [1, 12]: 59.7137 µg/mL and 97.7733 µg/mL and 114.927 µg/mL and 30.391 µg/mL | exposure - AUC [1, 12]: 540.113 µg·h/mL and 349.314 µg·h/mL and 371.77 µg·h/mL | Cmax [1, 13]: 174.84 µg/mL and 194.31 µg/mL and 41.31 µg/mL and 61.81 µg/mL and 148.23 µg/mL and 203.64 µg/mL and 215.41 µg/mL and 167.94 µg/mL | exposure - AUC [1, 13]: 687.155 µg·h/mL and 716.453 µg·h/mL and 299.365 µg·h/mL and 303.408 µg·h/mL and 583.353 µg·h/mL and 708.01 µg·h/mL and 517.538 µg·h/mL and 598.748 µg·h/mL | Cmax [1, 14]: 206.99 µg/mL and 230.13 µg/mL and 188.65 µg/mL and 99.77 µg/mL and 256.14 µg/mL and 172.69 µg/mL and 25.09 µg/mL and 47.76 µg/mL | exposure - AUC [1, 14]: 476.098 µg·h/mL and 561.835 µg·h/mL and 462.75 µg·h/mL and 833.928 µg·h/mL and 555.34 µg·h/mL and 670.743 µg·h/mL and 435.418 µg·h/mL and 360.168 µg·h/mL | Cmax [1, 15]: 146.587 µg/mL and 153.261 µg/mL and 191.742 µg/mL | exposure - AUC [1, 15]: 842.687 µg·h/mL and 783.604 µg·h/mL and 691.713 µg·h/mL | Cmax [1, 16]: 263.213 µg/mL and 90.4785 µg/mL and 181.854 µg/mL and 224.986 µg/mL | exposure - AUC [1, 16]: 610.926 µg·h/mL and 654.718 µg·h/mL and 646.623 µg·h/mL | exposure - AUC ([1]; dose 250 mg/kg, Day 1, individual animals, 250 mg/kg): 1583.82 µg·h/mL and 721.808 µg·h/mL and 793.135 µg·h/mL and 1183 µg·h/mL and 1366.178 µg·h/mL and 895.14 µg·h/mL and 850.363 µg·h/mL and 1425.683 µg·h/mL and 1258.01 µg·h/mL and 575.98 µg·h/mL and 469.06 µg·h/mL and 783 µg·h/mL | exposure - AUC ([1]; dose 250 mg/kg, Day 56, individual animals, 250 mg/kg): 1170.11 µg·h/mL and 1015.218 µg·h/mL and 686.383 µg·h/mL and 1887.035 µg·h/mL and 975.73 µg·h/mL and 1235.128 µg·h/mL and 1213.253 µg·h/mL and 997.608 µg·h/mL and 1100.488 µg·h/mL and 1004.075 µg·h/mL and 831.145 µg·h/mL and 1255.683 µg·h/mL | ALT and AST levels vs vehicle-treated ZDF group [2]: failed to alter the ALT and AST levels | liver safety parameters ([3]; 50–250 mg/kg/day, 14 and 56 days): No alteration of liver safety parameters | hepatocyte hypertrophy and liver mass ([3]; after the 14 and 56-day treatment): neither hypertrophy nor increased liver mass was observed | Compound Remaining (% of 0 min) ([4]; 0 min): 100 % of 0 min | Compound Remaining (% of 0 min) ([4]; 10 min): 92.6 % of 0 min and 92.7 % of 0 min | Compound Remaining (% of 0 min) ([4]; 20 min): 92.0 % of 0 min and 89.0 % of 0 min | Compound Remaining (% of 0 min) ([4]; 40 min): 86.8 % of 0 min and 80.9 % of 0 min | Compound Remaining (% of 0 min) ([4]; 60 min): 79.1 % of 0 min and 85.2 % of 0 min | Compound Remaining (% of 0 min) ([4]; 120 min): 81.9 % of 0 min and 77.1 % of 0 min | half-life at 3 μM [4, 17]: 6.73 h | microsomal CLint at 3 μM [4, 17]: 3.46 µL/min/mg | Compound Remaining (% of 0 min) ([5]; 0 min): 100 % of 0 min | Compound Remaining (% of 0 min) ([5]; 10 min): 93.0 % of 0 min and 92.9 % of 0 min | Compound Remaining (% of 0 min) ([5]; 20 min): 83.6 % of 0 min and 74.9 % of 0 min | Compound Remaining (% of 0 min) ([5]; 40 min): 73.0 % of 0 min and 74.7 % of 0 min | Compound Remaining (% of 0 min) ([5]; 60 min): 61.1 % of 0 min and 62.8 % of 0 min | Compound Remaining (% of 0 min) ([5]; 120 min): 65.2 % of 0 min and 60.1 % of 0 min | half-life at 3 μM [5, 18]: 3 h | microsomal CLint at 3 μM [5, 18]: 7.76 µL/min/mg | MTD at 14 days ([6]; both sexes, Wistar Han, rat, in vivo, oral, rats, 14-day study, read-out: maximum tolerated dose (MTD)): 600 mg/kg | mortality ([6]; rats, 1200 mg/kg group, 14-day study): death of one subject occurred on day 7 | ALT ([6]; rats, 1200 mg/kg, 14 days, fasted blood, significant increase from 34.2±8.5, in U/L (unit assumed)): 60.0±8.0 | ALP ([6]; rats, 1200 mg/kg, 14 days, fasted blood, significant increase from 86.3±30.2, in U/L (unit assumed)): 136.1±55.3 | ALT, AST and ALP ([6]; rats, 14-day study, doses up to 600 mg/kg): no ALT, AST, and ALP elevation | liver histopathology ([6]; rats, 14 days): no microscopic changes in the liver tissue | liver histopathology ([6]; rats, 56 days): mild to moderate hypertrophy of centrilobular hepatocytes at doses ≥ 150 mg/kg/day; also recorded: minimal to mild centrilobular hepatocyte hypertrophy | liver injury markers, TBA and T-BIL ([6]; rats, 56 days, 50, 150 and 500 mg/kg): none of the previously monitored markers nor TBA and T-BIL were altered | reversibility of hepatocyte hypertrophy / liver weight increase ([6]; rats, 56 days, recovery period): reversible after 28 days | liver mass as a percentage of body weight ([6]; rats, all groups (300, 600, 1200 mg/kg/day), 14 days): dose-dependent enlargement of the liver | Propensity to elevate liver enzyme damage markers ([6]; summary comparison CPL207280 vs TAK-875 (TAK-875: ref 25), sign spans both columns): < | Propensity to elevate bile acids and bilirubin in plasma ([6]; summary table): No | Compound Remaining (% of 0 min) ([7]; 0 min): 100 % of 0 min | Compound Remaining (% of 0 min) ([7]; 10 min): 101 % of 0 min and 81.5 % of 0 min | Compound Remaining (% of 0 min) ([7]; 20 min): 79.0 % of 0 min and 77.8 % of 0 min | Compound Remaining (% of 0 min) ([7]; 40 min): 77.7 % of 0 min and 66.7 % of 0 min | Compound Remaining (% of 0 min) ([7]; 60 min): 72.8 % of 0 min and 73.3 % of 0 min | Compound Remaining (% of 0 min) ([7]; 120 min): 65.3 % of 0 min and 56.0 % of 0 min | half-life at 3 μM [7, 19]: 3.1 h | microsomal CLint at 3 μM [7, 19]: 7.51 µL/min/mg | monkey % of parent at 60 min [8]: 7.25%
